{"source": "patent US8617563B2", "about": "“Antichlamydial agents” (Duke University, priority 2011, dated 2013)", "key": {"C. muridarum CPAF": {"tested_on": "C. muridarum CPAF", "assay": "GST-IncC cleavage by lysate of C. muridarum infected cells", "format": "biochemical", "conditions": "infected whole cell lysate", "experimental": "Cells were infected with an MOI of 1 and treated with CPAF inhibitor (SEQ ID NO:7) or control (SEQ ID NO:11) peptides at 12 hpi, fixed at 24 hpi and analyzed by IF with anti-L2 polyclonal antisera. Inclusion size was determined by measuring the inclusion diameter in μm by confocal microscopy of 50 infected cells. The number of cells with fragmented inclusions was determined by counting the number of infected cells out of 50 with more than one inclusion. (C) Sequence alignment and % sequence identify of full length CPAF and predicted inhibitory peptide sequence between C. trachomatis serovar LGV-L2, Chlamydia muridarum, and Chlamydophila caviae was determined using Geneious software (available at the Geneious website). […] GPIC or C. muridarum infected whole cell protein lysate was preincubated with SEQ ID NO:7 peptide or SEQ ID NO:11 control peptide, mixed with GST-IncC at 37° C., resolved by SDS-PAGE and stained with Coomassie blue. […] Inhibition of C. muridarum (E) and C. ceviae (F) growth was determined by counting the number of recovered IFUs. […] Inclusions were detected by IF with anti-LGV-L2 (A, B, E) antisera or anti-chlamydial LPS (F) monoclonal antibodies, and host nuclei sere detected by staining."}, "Caspase-1": {"tested_on": "Caspase-1", "assay": "Caspase-1 activity in infected cells (FLICA, flow cytometry)", "format": "cell-based, human", "conditions": "fluorescently labeled caspase-1 substrate", "experimental": "FIG. 13 depicts (A) that Caspase-1 inhibitors block Chlamydia-mediated cell death. Infected cells were treated with the Caspase-1 inhibitor Ac-YVAD-CMK at 2 hpi, and increasing concentrations of CPAF inhibitor added at 12 hpi. Cells were fixed and the percentage of cells with condensed nuclei determined at 24 hpi. (B) Enhanced Caspase-1 activation in infected cells lacking CPAF activity. Infected cells were labeled with a cell-permeable fluorescent substrate of Caspase-1 and treated with inhibitory peptides, and Caspase-1 activity was monitored by flow cytometry. (C) Caspase-1 and ASC are required for Chlamydia-mediated host cell death. […] Chlamydia replication and generation of IFUs in MLFs was assessed as in FIG. 9. […]\nSubsequent experiments tested whether CPAF inhibition led to the onset of apoptosis in infected cells. […] Apoptotic cells were identified with an AnnexinV-FLOUS Staining Kit (available from Roche) and activation of Caspase-1 was determined by labeling active Caspase-1 with a Carboxyfluorescein FLICA Detection Kit (available from Immunochemistry) and analyzed in a FACScanner (available from BD Biosciences). […] Consistent with result, Caspase-3 cleavage, another characteristic of apoptotic cell death, was not detected (FIG. 11C)."}, "[1]": {"tested_on": "mouse lung fibroblasts infected with C. trachomatis and C. muridarum", "assay": "Cell death in infected mouse lung fibroblasts from ICE−/− and ASC−/− knockout mice", "format": "cell-based", "conditions": "knockout cells, unlike wild-type counterparts", "experimental": "FIG. 12 depicts (A) low-magnification view of C. trachomatis LGV-L2 infected HeLa monolayers (30 h) treated with SEQ ID NO:7 or SEQ ID NO:11 peptides. (B) The frequency of condensed nuclei in treated cells is dependent on peptide concentration and Chlamydia infection. (C-D) Toxicity of CPAF inhibitors to Chlamydia-infected cells is observed in non-myeloid cells including human embryonic kidney cells HEK293 (C) and mouse embryo fibroblasts (D). […] (F-G) Cell death induced by anti-CPAF peptides requires Caspase-1 activation. HeLa cells infected with C. muridarum were treated with Ac-YVAD-CMK at 2 hpi, SEQ ID NO:7 peptide or SEQ ID NO:11 control peptide at 12 hpi and the percentage of infected cells with condensed nuclei was assessed at 48 hpi (F). […] The percentage of infected cells with condensed nuclei was assessed at 48 hpi (G). […] Cell death in infected and uninfected cells treated with CPAF inhibitory peptides or control peptides was determined by counting the number of condensed nuclei of ˜1000 cells.\nFIG. 13 depicts (A) that Caspase-1 inhibitors block Chlamydia-mediated cell death. […] Cells were fixed and the percentage of cells with condensed nuclei determined at 24 hpi. […] Infected cells were labeled with a cell-permeable fluorescent substrate of Caspase-1 and treated with inhibitory peptides, and Caspase-1 activity was monitored by flow cytometry. […]"}}, "note": "Entries after “also recorded” stand apart in the source; their conditions may differ. Where no end group is shown, it is not given here."}
{"substance": "SLFYSPMVPHFWAELRNHYATSGLKRRRRRRRRR-NH2 [SEQ ID NO:7]", "values": [{"measurement": "Inhibition of substrate cleavage by C. muridarum CPAF", "setting": "C. muridarum CPAF", "value": "prevented cleavage of substrate; also recorded: inhibits C. muridarum CPAF"}, {"measurement": "Caspase-1 activity in infected cells", "setting": "Caspase-1", "value": "significantly increased"}, {"measurement": "Host cell death in infected ICE−/− and ASC−/− mouse lung fibroblasts", "setting": "[1]", "value": "resistant to host cell death"}]}
